Patent publication US20100034874A1, “LIPOSOME ENCAPSULATING AMMINE-PLATINUM COMPLEX AT HIGH CONCENTRATION, AND METHOD FOR PRODUCTION OF THE LIPOSOME” (KATAYAMA CHEMICAL INDUSTRIES CO., LTD., priority 2006, published 2010)

Columns and labels:
[1] = cited from earlier work
[2] = Conversion of cis-diamine dinitratoplatinum (II) to cis-diamine dichloroplatinum (II) in 150 mM sodium chloride (UV absorption spectrum); format: physicochemical
Protocol: Five mg/ml of cis-diamine dinitratoplatinum (II) was dissolved in a TAPS buffer solution containing 150 mM of sodium chloride (pH: 8.4); the solution was stationarily placed at 25° C.; and the UV spectrum of the solution was determined over time (0 minute, 5 minutes, 10 minutes, 15 minutes, 30 minutes and 45 minutes). One mg of cis-diamine dichloroplatinum (II) was dissolved in 1 ml of sodium chloride-containing TAPS buffer solution, to give a control, and the UV spectrum thereof was obtained. […] There was no change in UV spectrum, when the sample was stored without movement for 45 minutes or more. […] This probably occurs because the presence of NaCl leads to the conversion of cis-diamine dinitratoplatinum (II) to the hardly water-soluble cis-diamine dichloroplatinum (II) and the subsequent precipitation of the latter.
Replacement of the nitrate ion of cis-diammine dinitratoplatinum (II) with the chloride ion in the 150 mM sodium chloride solution was studied by absorption spectroscopic method (Comparative Example 1 and FIGS. 4A and 4B).

Solubility in water = format: physicochemical
Protocol: For example, in the case of cisplatin, the solubility of cisplatin in water is 2 mg/ml (room temperature). The solubility of cisplatin nitrate is 20 mg/ml. Namely, cisplatin can be used as a platinum complex in an amount of not less than its solubility (room temperature). Ionic species forming a water-soluble or a poorly water-soluble salt with the platinum complex such as cisplatin are known in the art or can be selected properly, and thus, even if the platinum complex is that other than cisplatin, it is possible to select a platinum complex properly by considering its solubility, similarly to cisplatin. In this case, it is possible to form nitrates similarly, by adjusting the equivalent amount of silver nitrate added. In addition, concentrations of a bromide ion and an iodide ion are the same as the concentration of a chloride ion respectively; therefore, with any of these ions, the present invention can be carried out without problems. This is because the bromide ion or the iodide ion, which are higher in binding property than the chloride ion, can form a poorly water-soluble substance similarly, even when the present invention is carried out under the same conditions. Since it is believed that there is no difference in liposomal membrane permeability of each ion, the present invention can be carried out by taking these elements into consideration similarly.

[3] = system: Ehrlich ascites cancer cells (EAT cells); test: Tumor proliferation-inhibiting activity (tumor volume); format: in vivo, mouse (Balb/c); conditions: 1.5 mg/kg caudal vein on days 5, 12, 19, n=3
Protocol: 1×10^6 Ehrlich ascites cancer cells (EAT cells) (ATCC Number: CCl^−77TME (Ehrlich-Letter ascites)) were transplanted subcutaneously into right femoral region of 6-week old mice (Balb/c, female) (n=3), and the following tests were performed after 10 days. The cis-diamine dichloroplatinum (II)-containing sialyl Lewis X-modified liposome and the anti-E-selectin antibody-modified liposome were administered into the caudal vein of a mouse respectively in an amount of 1.5 mg/kg (200 μg/ml) on the 5th, 12th, and 19th days after transplantation. As a control, cis-diamine dichloroplatinum (II) was dissolved in physiological saline to a concentration of 200 μg/ml. The dissolved solution was administered similarly.
The size, length (A mm) and diameter (B mm), of the tumor was determined by using a digital vernier caliper (Mitsutoyo CD-S15C) on the 12th, 19th, and 29th days after tumor transplantation. The volume of the tumor (mm^3) was calculated by the following Formula: (A×B^2)×0.4.

[4] = system: Ehrlich ascites cancer cells (EAT cells); test: Cell proliferation-inhibiting activity (MTT assay, WST-8 reagent); format: cell-based; conditions: 48 hours, no sample 0.480, n=3
Protocol: Ehrlich ascites cancer cells (EAT cells) (ATCC Number: CCl^−77TME (Ehrlich-Letter ascites)) were inoculated at 1×10^3 cell/100 μl/well (Falcon3072), and a sample was added after culture for 24 hours. The samples were prepared by diluting the cis-diamine dichloroplatinum (II)-containing unmodified liposome, the cis-diamine dichloroplatinum (II)-containing sialyl Lewis X liposome, and the cis-diamine dichloroplatinum (II)-containing anti-E-selectin antibody-modified liposome, with DMEM buffer solution (Dulbeccos's Ham Modified Eagle liquid medium, low glucose SIGMA D6046)/10% FBS (fetal calf serum SIGMA F0926)/penicillin 100 unit/ml-streptomycin 100 μg/ml (antibiotic antimycotic solution, stabilized SIGMA A5955)) to a cis-diamine dichloroplatinum (II) amount of 10 μg/ml. […] The cell count, 48 hours after addition was determined by the MTT assay of using the formazan amount as an indicator.
In addition, a solution containing only added DMEM/10% FBS was analyzed by the MTT assay as a control containing no sample.
A cell count-measuring reagent WST-8 (Kishida Chemical) was added to each well in an amount of 20 μl, and the absorbance thereof at 450 nm was determined after 2 hours. The absorbance was determined by using GE Healthcare Ultrospec-6300. […]

[5] = system: Ehrlich ascites cancer cells (EAT cells) tumor; test: Accumulation at cancerous site: platinum content in removed tumor by FAAS; format: in vivo, mouse (Balb/c); conditions: 1.7 mg/kg body weight, caudal vein, n=1
Protocol: 1×10^6 Ehrlich ascites cancer cells (EAT cells) (ATCC Number: CCl^−77TME (Ehrlich-Letter ascites)) were transplanted subcutaneously into the right femoral region of a 6-week old mouse (Balb/c, female) (n=1) and the following test was performed after 10 days. A cis-diamine dichloroplatinum (II)-containing sialyl Lewis X-modified liposome and a control of pure cis-diamine dichloroplatinum (II) were administered respectively into the caudal vein of a mouse in an amount of 150 μl, i.e. 1.7 mg/kg body weight (226 μg/ml). The resulting tumor was removed, 48 and 96 hours after administration. 0.1 g of the removed tumor tissue (0.2 to 1.0 g) was added to 1 ml of conc. nitric acid, and the mixture was agitated for 5 minutes. After static storage for 1 hour, the mixture was heated at […] in a water bath and then cooled to room temperature. 300 μl of distilled water was added to 100 μl of the nitric 5 acid-treated solution. The content of platinum therein was determined by flameless atomic absorption spectroscopy (FAAS: AA-6700 Atomic absorption flame emission spectrophotometer SIMAZU), and the platinum contents in 1 g of tumor were compared between the sample and the control. […]

For [NH2][Pt]([NH2])([O][N+](=O)[O-])[O][N+](=O)[O-] [CDDP-3, cis-diammine dinitratoplatinum (II)], the “solubility of cisplatin nitrate” value [1] is given as 20 mg/mL, the “time for conversion to cis-diamine dichloroplatinum (II)” value ([2]; TAPS containing 150 mM NaCl, pH 8.4, 25° C., 5 mg/ml) is given as 45 min and the “fraction converted to cis-diamine dichloroplatinum (II)” value ([2]; in the presence of 150 mM sodium chloride) is given as ≥ 99%. For the same compound, the “solubility in water relative to cis-diamine dichloroplatinum (II)” value (Solubility in water) was “approximately 10 times”.
In the case of N.N.[Cl][Pt][Cl] [Cisplatin, cis-diammine dichloroplatinum (II)], the Average tumor volume ([3]; Day 12 after tumor transplantation) is reported as 63 mm^3, the Average tumor volume ([3]; Day 19 after tumor transplantation) is reported as 63 mm^3 and the Average tumor volume ([3]; Day 29 after tumor transplantation) is reported as 501 mm^3. The “Average absorbance (450 nm)” value ([4]; sample final concentration 8.30 μM) was 0.045, the “Average absorbance (450 nm)” value ([4]; sample final concentration 16.60 μM) was 0.027 and the “Platinum concentration (ng/g tissue) in tumor” value ([5]; 48 hours after administration) was 361 ng/g tissue. For the same compound, the “Platinum concentration (ng/g tissue) in tumor” value ([5]; 96 hours after administration) was 49 ng/g tissue.
